Values of other authors as cited in US6340484B1, “Compositions containing neem seed extracts and saccharide” (E.I.D. Parry (India) Limited, priority 2000, dated 2002).
Read-outs that look alike come from different tables or passages of the source.

Details: 25 days at 29+/−1° C.

For C/C=C(\C)C(=O)O[C@H]1C[C@@H](OC(C)=O)[C@@]2(C(=O)OC)CO[C@H]3[C@@H](O)[C@@](C)([C@]45O[C@@]4(C)[C@@H]4C[C@H]5O[C@@H]5OC=C[C@@]54O)[C@H]4[C@]1(CO[C@]4(O)C(=O)OC)[C@@H]32 [azadirachtin A], the “degradation of azadirachtin A” value (in acetone) is listed as 50%, the “degradation of azadirachtin A” value (in carbon tetrachloride) is listed as 75-80% and the “degradation of azadirachtin A” value (in chloroform) is listed as 75-80%. The “degradation of azadirachtin A” value (in ethanol) was “about 85%”, the “degradation of azadirachtin A” value (in methanol) was 50% and the “degradation of azadirachtin A” value (in methylene chloride) was 75-80%. The “degradation of azadirachtin A” value (in water) was “about 85%”.
